According to PMC8880564, “Design, Synthesis, and Biological Evaluation of a Novel VEGFR-2 Inhibitor Based on a 1,2,5-Oxadiazole-2-Oxide Scaffold with MAPK Signaling Pathway Inhibition” (Pharmaceuticals, 2022):

Assays:
Assay in all cases: NCI-60 one-dose SRB screening
Assay type in all cases: cell-based
MCF7 = conditions: Homo sapiens, MCF7, Breast Cancer, 10 µM one dose, 48 h, read-out: growth percentage
Procedure: (§1) The structures of the synthesized compounds 6a–h, 12a–c, 11, 13a–c, and 14a–c were submitted to the National Cancer Institute’s Developmental Therapeutics Program (NCI-DTP), and all of them were selected for preliminary in vitro anticancer activity screening against NCI-59 human cancer cell lines at a concentration of 10 µM, using the sulforhodamine B (SRB) assay to determine the growth percentage and cell viability.
(§2) The in vitro NCI-60 cell line screening assay was conducted at the National Cancer Institute (NCI), Bethesda, USA against 59 cancer cell lines representing 9 types of cancers, as reported earlier. Briefly, the human cancer cell lines were grown in RPMI 1640 medium containing 5% fetal bovine serum and 2 mM L-glutamine and inoculated into 96-well microtiter plates in 100 μL (5000 to 40,000 cells/well). Then, the plates were incubated at 37 °C, 5% CO2, 95% air, and 100% relative humidity for 24 h. After that, two plates of each cell line were fixed in situ with TCA, to represent cell population at time zero (Tz). The tested compounds were dissolved in DMSO at 400-fold and added so that the final concentration became 10 μM. The plates were then incubated for an additional 48 h followed by the addition of cold TCA to terminate the assay in case of adherent cells. Then, the cells were fixed in situ by cold 50% (w/v) TCA (50 μL; final concentration, 10% TCA) and incubated for 1 h at 4 °C. After discarding the supernatant, the plates were washed 5 times with tap water and air dried. Sulforhodamine B (SRB) solution (100 μL) at 0.4% (w/v) in 1% HOAc was added to each well, and plates were incubated for 10 min. at rt. Then, washing with 1% acetic acid was conducted 5 times to remove the unbound dye followed by air drying. After that, 10 mM trizma base was added to solubilize the bound stain, and the absorbance was read on an automated plate reader at a wavelength of 515 nm. On the other hand, the methodology for suspension cells was the same except that 50 μL of 80% TCA (final concentration, 16% TCA) was gently added to terminate the assay by fixing settled cells at the bottom of the wells. Percentage growth inhibition (GI%) was calculated as follows:
(§3) Growth percentage=Ti (test growth in the presence of compound at 10 µM )−Tz (time zero)/C (control growth)−Tz (time zero)×100 for Ti ≥ Tz;
(§4) Growth percentage=Ti (test growth in the presence of compound at 10 µM )−Tz (time zero)/Tz (time zero)×100 for Ti < Tz.
(§5) where values of 100, 40, 0, −40, and −100 mean no GI, 60% GI, no net G, 40% lethality, and all cells are dead, respectively.

786-0 = conditions: Homo sapiens, 786-0, Renal Cancer, 10 µM one dose, 48 h, read-out: growth percentage
Procedure: as §1, §2, §3, §4, §5

M14 = conditions: Homo sapiens, M14, Melanoma, 10 µM one dose, 48 h, read-out: growth percentage
Procedure: as §1, §2, §3, §4, §5

RPMI-8226 = conditions: Homo sapiens, RPMI-8226, Leukemia, 10 µM one dose, 48 h, read-out: growth percentage
Procedure: as §1, §2, §3, §4, §5

NCI-H522 = conditions: Homo sapiens, NCI-H522, Non-Small Cell Lung Cancer, 10 µM one dose, 48 h, read-out: growth percentage
Procedure: as §1, §2, §3, §4, §5

K-562 = conditions: Homo sapiens, K562, K-562, Leukemia, 10 µM one dose, 48 h, read-out: growth percentage
Procedure: as §1, §2, §3, §4, §5

SK-OV-3 = conditions: Homo sapiens, SK-OV-3, Ovarian Cancer, 10 µM one dose, 48 h, read-out: growth percentage
Procedure: as §1, §2, §3, §4, §5

SF-539 = conditions: Homo sapiens, SF-539, CNS Cancer, 10 µM one dose, 48 h, read-out: growth percentage
Procedure: as §1, §2, §3, §4, §5

IGROV1 = conditions: Homo sapiens, IGROV-1, IGROV1, Ovarian Cancer, 10 µM one dose, 48 h, read-out: growth percentage
Procedure: as §1, §2, §3, §4, §5

SN12C = conditions: Homo sapiens, Renal Cancer, 10 µM one dose, 48 h, read-out: growth percentage
Procedure: as §1, §2, §3, §4, §5

MDA-MB-435 = conditions: Homo sapiens, MDA-MB-435, Melanoma, 10 µM one dose, 48 h, read-out: growth percentage
Procedure: as §1, §2, §3, §4, §5

HL-60(TB) = conditions: Homo sapiens, Leukemia, 10 µM one dose, 48 h, read-out: growth percentage
Procedure: as §1, §2, §3, §4, §5

A549/ATCC = conditions: Homo sapiens, Non-Small Cell Lung Cancer, 10 µM one dose, 48 h, read-out: growth percentage
Procedure: as §1, §2, §3, §4, §5

RXF 393 = conditions: Homo sapiens, RXF 393, Renal Cancer, 10 µM one dose, 48 h, read-out: growth percentage
Procedure: as §1, §2, §3, §4, §5

SK-MEL-28 = conditions: Homo sapiens, SK-MEL-28, Melanoma, 10 µM one dose, 48 h, read-out: growth percentage
Procedure: as §1, §2, §3, §4, §5

MDA-MB-231/ATCC = conditions: Homo sapiens, Breast Cancer, 10 µM one dose, 48 h, read-out: growth percentage
Procedure: as §1, §2, §3, §4, §5

PC-3 = conditions: Homo sapiens, PC-3, Prostate Cancer, 10 µM one dose, 48 h, read-out: growth percentage
Procedure: as §1, §2, §3, §4, §5

NCI-H226 = conditions: Homo sapiens, NCI-H226, Non-Small Cell Lung Cancer, 10 µM one dose, 48 h, read-out: growth percentage
Procedure: as §1, §2, §3, §4, §5

SF-268 = conditions: Homo sapiens, SF-268, CNS Cancer, 10 µM one dose, 48 h, read-out: growth percentage
Procedure: as §1, §2, §3, §4, §5

NCI-H460 = conditions: Homo sapiens, NCI-H460, Non-Small Cell Lung Cancer, 10 µM one dose, 48 h, read-out: growth percentage
Procedure: as §1, §2, §3, §4, §5

NCI-H23 = conditions: Homo sapiens, NCI-H23, Non-Small Cell Lung Cancer, 10 µM one dose, 48 h, read-out: growth percentage
Procedure: as §1, §2, §3, §4, §5

Row | SMILES | activity at 10 µM (MCF7) | activity at 10 µM (786-0) | activity at 10 µM (M14) | activity at 10 µM (RPMI-8226) | activity at 10 µM (NCI-H522) | activity at 10 µM (K-562) | activity at 10 µM (SK-OV-3) | activity at 10 µM (SF-539) | activity at 10 µM (IGROV1) | activity at 10 µM (SN12C) | activity at 10 µM (MDA-MB-435) | activity at 10 µM (HL-60(TB)) | activity at 10 µM (A549/ATCC) | activity at 10 µM (RXF 393) | activity at 10 µM (SK-MEL-28) | activity at 10 µM (MDA-MB-231/ATCC) | activity at 10 µM (PC-3) | activity at 10 µM (NCI-H226) | activity at 10 µM (SF-268) | activity at 10 µM (NCI-H460) | other results
1 | [O-][n+]1onc(-c2ccccc2)c1COc1ccc(Nc2ncnc3c2cnn3-c2ccccc2)cc1 [6a, 4-phenyl-3-((4-((1-phenyl-1H-pyrazolo[3,4-d]pyrimidin-4-yl)amino)phenoxy)methyl)-1,2,5-oxadiazole 2-oxide] | 96.1% | 115% | 104% | 104% | 99.2% | 88% | 102% | 95.7% | 95% | 97.3% | 114% | 94.7% | 96% | 98.4% | 104% | 97.5% | 98.1% | 111% | 103% | 73.6% | activity at 10 µM (NCI-H23): 105%
2 | Cc1nc(Nc2ccc(OCc3c(-c4ccccc4)no[n+]3[O-])cc2)c2cnn(-c3ccccc3)c2n1 [6b, 3-((4-((6-methyl-1-phenyl-1H-pyrazolo[3,4-d]pyrimidin-4-yl)amino)phenoxy)methyl)-4-phenyl-1,2,5-oxadiazole 2-oxide] | 92.4% | 95.8% | 103% | 114% | 96.3% | 111% | 110% | 102% | 101% | 101% | 99.7% | 122% | 101% | 111% | 101% | 106% | 103% | 94.7% | 103% | 111% | activity at 10 µM (NCI-H23): 102%
3 | Cc1nn(-c2ccccc2)c2ncnc(Nc3ccc(OCc4c(-c5ccccc5)no[n+]4[O-])cc3)c12 [6c, 3-((4-((3-methyl-1-phenyl-1H-pyrazolo[3,4-d]pyrimidin-4-yl)amino)phenoxy)methyl)-4-phenyl-1,2,5-oxadiazole 2-oxide] | 83% | 107% | 90.3% | 94% | 84.8% | 90.2% | 104% | 96.2% | 97.1% | 87.9% | 93.4% | 119% | 99.3% | 112% | 102% | 95.7% | 83.5% | 97.3% | 96.5% | 109% | activity at 10 µM (NCI-H23): 98.1%
